# Laboratory results published in patent US20070021501A1, “Methods of treating epileptogenesis” (priority 2005, published 2007).
# Columns and labels:
# [1] = tested on: lithium-pilocarpine model of temporal lobe epilepsy in the rat; test: Mossy fiber sprouting in hippocampus, Timm staining (Example 1); format: in vivo
# Procedure: At 2 months after the onset of spontaneous recurrent seizures, mossy fiber sprouting was examined on rats in the chronic period exposed to the test compound or DZP and in 3 saline-saline rats. Animals were deeply anaesthetized and perfused transcardially with saline followed by 100 ml of 1.15% (w/v) Na2S in 0.1 M phosphate buffer, and 100 ml of 4% (v/v) formaldehyde in 0.1 M phosphate buffer. Brains were removed from skull, post-fixed in 4% formaldehyde during 3-5 h and 40 μm sections were cut on a sliding vibratome and mounted on gelatin-coated slides.
# The following day, sections were developed in the dark in a 26° C. solution of 50% (w/v) arabic gum (160 ml), sodium citrate buffer (30 ml), 5.7% (w/v) hydroquinone (80 ml) and 10% (w/v) silver nitrate (2.5 ml) during 40-45 min. The sections were then rinsed with tap water at 40° C. during at least 45 min, rinsed rapidly with distilled water and allowed to dry. They were dehydrated in ethanol and coverslipped.
# Mossy fiber sprouting was evaluated according to criteria previously described in dorsal hippocampus (Cavazos et al., 1991, J Neurosci 11:2795-2803.), which are follows: 0—no granules between the tips and crest of the DG; 1—sparse granules in the supragranular region in a patchy distribution between the tips and crest of DG; 2—more numerous granules in a continuous distribution between the tips and crest of DG; 3—prominent granules in a continuous pattern between tips and crest, with occasional patches of confluent granules between tips and crest; 4—prominent granules that form a confluent dense laminar band between tips and crest and 5—confluent dense laminar band of granules that extends into the inner molecular layer.
# [2] = tested on: lithium-pilocarpine model of temporal lobe epilepsy in the rat; test: Latency to and frequency of spontaneous recurrent seizures (SRS), lithium-pilocarpine model (Example 1); format: in vivo
# Procedure: The bilateral EEG cortical activity was recorded during the whole duration of SE and behavioral changes were noted.
# The effects of increasing doses of the test compound were studied on 3 groups of rats. The animals of the first group received 10 mg/kg of the test compound, i.p., 1 h after the onset of SE (pilo-TC10) while the animals of groups 2 and 3 received 30 and 60 mg/kg of the test compound (pilo-TC30 and pilo-TC60), respectively.
# The control group received saline instead of pilocarpine and the test compound (saline-saline). […] Pilo-DZP received a second injection of 1 mg/kg DZP on the day of SE at about 10 h after the first one. Thereafter, Pilo-DZP and saline-saline rats received twice daily an equivalent volume of saline. […]
# To calculate the frequency of SRS in pilocarpine-exposed rats, the seizure severity and distinguished stage III (clonic seizures of facial muscles and anterior limbs) and stage IV-V seizures (rearing and falling) was considered. […] The frequency of more severe stage IV-V SRS was highest during the first week in most groups, except pilo-TC30 and TC60 with late seizure onset where the SRS frequency was constant over the whole 4 weeks in TC30 group and over the first two weeks in the pilo-TC60 group with late SRS onset in which no stage IV-V seizures where no seizures recorded after the second week.
smiles,measurement,setting,value
"CN1C(=O)CN=C(c2ccccc2)c2cc(Cl)ccc21 [DZP, diazepam]",mean Timm score in the upper blade of the dentate gyrus,[1]; DZP (n=9),2.8±0.8
NC(=O)OC[C@@H](O)c1ccccc1Cl [TC],frequency of stage III SRS,"[2]; TC 10 mg/kg, weeks 3 and 4",significantly increased over pilo-DZP values
same,occurrence of epilepsy,"[2]; TC 60 mg/kg, one rat",did not become epileptic in a delay of 9 months post-SE
same,mean Timm score in the upper blade of the dentate gyrus,[1]; TC 10 mg/kg (n=7),1.5±0.6
same,mean Timm score in the upper blade of the dentate gyrus,[1]; TC 30 mg/kg (n=10),2.6±1.0
same,mean Timm score in the upper blade of the dentate gyrus,"[1]; TC 60 mg/kg, whole group (n =11)",1.5±0.7
